Assay [1] concerns the target T1, plasma kallikrein (Homo sapiens, UniProt P03952).
T1 construct: from tissue
The experiment in a line: Neat human plasma assay, FXIIa contact pathway-activated, PFR-AMC substrate. The assay is classed as biochemical. To be noted: citrated human plasma 78% final, 10 nM human FXIIa, 100 μM PFR-AMC; read-out: Human Plasma Assay: IC90. A digest of the protocol:
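Citrated human plasma (78% final) with compound, contact-activated by 10 nM human FXIIa in pKal buffer pH 7.5, with 100 μM PFR-AMC. Fluorescence (360/480 nm) followed 5 min at room temperature; rates versus concentration fitted by 4-parameter equation for IC50/IC90.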

In assay [2] the target is human activated kallikrein enzyme (Homo sapiens, UniProt P03952). Description: Plasma kallikrein inhibition, fluorogenic PFR-AMC substrate, 500 pM activated kallikrein format. Format: biochemical. To be noted: 500 pM activated kallikrein, 300 uM PFR-AMC, 30 min preincubation, 10 min reaction; read-out: Primary Dose Response Assay: Average EC50. Put shortly: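 500 pM enz + cpd, 30 min RT preinc; start w/ PFR-AMC 300 uM; 10 min RT; Ex380/Em460. Buffer: Tris 20 mM pH 7.5, EDTA 1 mM, NaCl 150 mM, PEG-400 0.1%, Triton 0.1%. EC50.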
human activated kallikrein enzyme, sequence (P03952 391-638 limits assumed): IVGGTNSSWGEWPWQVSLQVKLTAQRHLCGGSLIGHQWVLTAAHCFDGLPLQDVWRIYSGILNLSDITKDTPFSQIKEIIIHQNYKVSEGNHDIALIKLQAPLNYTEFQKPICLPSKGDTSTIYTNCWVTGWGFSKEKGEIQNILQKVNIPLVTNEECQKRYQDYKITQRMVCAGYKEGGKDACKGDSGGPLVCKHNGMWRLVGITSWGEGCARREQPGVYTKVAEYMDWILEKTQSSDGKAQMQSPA
human activated kallikrein enzyme, sequence (P03952 20-390 partner limits assumed): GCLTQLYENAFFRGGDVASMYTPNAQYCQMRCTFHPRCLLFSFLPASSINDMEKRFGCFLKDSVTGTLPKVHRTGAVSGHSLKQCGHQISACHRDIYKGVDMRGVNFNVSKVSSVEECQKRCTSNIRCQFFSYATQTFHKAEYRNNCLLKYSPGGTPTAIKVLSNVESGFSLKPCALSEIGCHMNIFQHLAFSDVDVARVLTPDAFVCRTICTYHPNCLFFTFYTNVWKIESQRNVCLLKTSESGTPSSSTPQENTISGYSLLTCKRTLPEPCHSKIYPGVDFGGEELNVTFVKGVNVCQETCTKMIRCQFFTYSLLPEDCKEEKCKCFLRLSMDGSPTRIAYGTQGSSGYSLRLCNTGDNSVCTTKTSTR

T1 sequence (P03952 391-638 limits assumed): as the sequence (P03952 391-638 limits assumed) above
T1 sequence (P03952 20-390 partner limits assumed): as the sequence (P03952 20-390 partner limits assumed) above

With `CN1C(=O)CN(c2cc(C3CC3)cn3cc(CNc4ccnc(NC(=O)[C@H]5C[C@@H]5c5cccc(Cl)c5)c4)nc23)C1=O` [Example I-209, (1S,2S)-2-(3-chlorophenyl)-N-(4-(((6-cyclopropyl-8-(3-methyl-2,4-dioxoimidazolidin-1-yl)imidazo[1,2-a]pyridin-2-yl)methyl)amino)pyridin-2-yl)cyclopropane-1-carboxamide], the IC90 (in general, the point of the concentration-response curve where the effect stands at 90%) in assay [1] was in the range of 400 to 1500 nM. Moreover, in assay [2], the EC50 (commonly the concentration at which the effect is half-maximal) was less than 1 nM.
For `CN1CC(F)(c2cc(C3CC3)cn3cc(CNc4ccnc(NC(=O)[C@H]5C[C@@H]5c5cccc(Cl)c5)c4)nc23)C1` [Example I-227, (1S,2S)-2-(3-chlorophenyl)-N-(4-(((6-cyclopropyl-8-(3-fluoro-1-methylazetidin-3-yl)imidazo[1,2-a]pyridin-2-yl)methyl)amino)pyridin-2-yl)cyclopropane-1-carboxamide], the IC90 in assay [1] was less than 400 nM. For the same compound, in assay [2], the EC50 is less than 1 nM.
For `O=C(Nc1cc(NCc2cn3cc(C4CC4)cc(N4CCN5CC(O)CC5C4)c3n2)ccn1)[C@H]1C[C@@H]1c1cccc(Cl)c1` (stereo partly drawn) [Example I-228, (1S,2S)-2-(3-chlorophenyl)-N-(4-(((6-cyclopropyl-8-(7-hydroxyhexahydropyrrolo[1,2-a]pyrazin-2(1H)-yl)imidazo[1,2-a]pyridin-2-yl)methyl)amino)pyridin-2-yl)cyclopropane-1-carboxamide], the IC90 in assay [1] was in the range of 400 to 1500 nM. In assay [2], the EC50 was less than 1 nM.
For `CN1CCC(F)(c2cc(C3CC3)cn3cc(CNc4ccnc(NC(=O)[C@H]5C[C@@H]5c5cccc(Cl)c5)c4)nc23)CC1` [Example I-229, (1S,2S)-2-(3-chlorophenyl)-N-(4-(((6-cyclopropyl-8-(4-fluoro-1-methylpiperidin-4-yl)imidazo[1,2-a]pyridin-2-yl)methyl)amino)pyridin-2-yl)cyclopropane-1-carboxamide], in that order: less than 400 nM and less than 1 nM.
Taken in the same sequence, the figures for `O=C(Nc1cc(NCc2cn3cc(C4CC4)cc(N4CCN5CCCC5C4)c3n2)ccn1)[C@H]1C[C@@H]1c1cccc(Cl)c1` (stereo partly drawn) [Example I-231, (1S,2S)-2-(3-chlorophenyl)-N-(4-(((6-cyclopropyl-8-(hexahydropyrrolo[1,2-a]pyrazin-2(1H)-yl)imidazo[1,2-a]pyridin-2-yl)methyl)amino)pyridin-2-yl)cyclopropane-1-carboxamide] were 400 to 1500 nM and less than 1 nM.
Taken in the same sequence, the figures for `O=C(Nc1cc(NCc2cn3cc(C4CC4)cc(N4CCN(C5CC5)CC4)c3n2)ccn1)[C@H]1C[C@@H]1c1cccc(Cl)c1` [Example I-232, (1S,2S)-2-(3-chlorophenyl)-N-(4-(((6-cyclopropyl-8-(4-cyclopropylpiperazin-1-yl)imidazo[1,2-a]pyridin-2-yl)methyl)amino)pyridin-2-yl)cyclopropane-1-carboxamide] were 1500 to 10000 nM and less than 1 nM.
For `O=C(Nc1cc(NCc2cn3cc(C4CC4)cc(N4CCN(C5COC5)CC4)c3n2)ccn1)[C@H]1C[C@@H]1c1cccc(Cl)c1` [Example I-233, (1S,2S)-2-(3-chlorophenyl)-N-(4-(((6-cyclopropyl-8-(4-(oxetan-3-yl)piperazin-1-yl)imidazo[1,2-a]pyridin-2-yl)methyl)amino)pyridin-2-yl)cyclopropane-1-carboxamide], the IC90 in assay [1] lay in the range of 400 to 1500 nM. Besides, the EC50 in assay [2] was less than 1 nM.
With `CCN1CCN(c2cc(C3CC3)cn3cc(CNc4ccnc(NC(=O)[C@H]5C[C@@H]5c5cccc(Cl)c5)c4)nc23)CC1` [Example I-234, (1S,2S)-2-(3-chlorophenyl)-N-(4-(((6-cyclopropyl-8-(4-ethylpiperazin-1-yl)imidazo[1,2-a]pyridin-2-yl)methyl)amino)pyridin-2-yl)cyclopropane-1-carboxamide], in assay [1], the IC90 is less than 400 nM. Besides, the EC50 in assay [2] was less than 1 nM.
For `CS(=O)(=O)c1cc(C2CC2)cn2cc(CNc3ccnc(NC(=O)[C@H]4C[C@@H]4c4cccc(Cl)c4)c3)nc12` [Example I-235, (1S,2S)-2-(3-chlorophenyl)-N-(4-(((6-cyclopropyl-8-(methylsulfonyl)imidazo[1,2-a]pyridin-2-yl)methyl)amino)pyridin-2-yl)cyclopropane-1-carboxamide], in that order: 400 to 1500 nM and less than 1 nM.
In the case of `CC(O)c1cc(C2CC2)cn2cc(CNc3ccnc(NC(=O)[C@H]4C[C@@H]4c4cccc(Cl)c4)c3)nc12` (stereo partly drawn) [Example I-236, (1S,2S)-2-(3-chlorophenyl)-N-(4-(((6-cyclopropyl-8-(1-hydroxyethyl)imidazo[1,2-a]pyridin-2-yl)methyl)amino)pyridin-2-yl)cyclopropane-1-carboxamide], the IC90 in assay [1] was more than 48000 nM. For the same compound, the EC50 in assay [2] is less than 1 nM.
With `CC(=O)c1cc(C2CC2)cn2cc(CNc3ccnc(NC(=O)[C@H]4C[C@@H]4c4cccc(Cl)c4)c3)nc12` [Example I-237, (1S,2S)-N-(4-(((8-acetyl-6-cyclopropylimidazo[1,2-a]pyridin-2-yl)methyl)amino)pyridin-2-yl)-2-(3-chlorophenyl)cyclopropane-1-carboxamide], in assay [1], the IC90 is 1500 to 10000 nM. The EC50 in assay [2] is less than 1 nM.
For `O=C(Nc1cc(NCc2cn3cc(C4CC4)cc(N4CCOC4=O)c3n2)ccn1)[C@H]1C[C@@H]1c1cccc(Cl)c1` [Example I-238, (1S,2S)-2-(3-chlorophenyl)-N-(4-(((6-cyclopropyl-8-(2-oxooxazolidin-3-yl)imidazo[1,2-a]pyridin-2-yl)methyl)amino)pyridin-2-yl)cyclopropane-1-carboxamide], in that order: less than 400 nM and less than 1 nM.
Taken in the same sequence, the figures for `COC(=O)CCc1cc(C2CC2)cn2cc(CNc3ccnc(NC(=O)[C@H]4C[C@@H]4c4cccc(Cl)c4)c3)nc12` [Example I-239, methyl 3-(2-(((2-((1S,2S)-2-(3-chlorophenyl)cyclopropane-1-carboxamido)pyridin-4-yl)amino)methyl)-6-cyclopropylimidazo[1,2-a]pyridin-8-yl)propanoate] were 1500 to 10000 nM and less than 1 nM.
Taken in the same sequence, the figures for `CCOC(=O)CCc1cc(C2CC2)cn2cc(CNc3ccnc(NC(=O)[C@H]4C[C@@H]4c4cccc(Cl)c4)c3)nc12` [Example I-240, ethyl 3-(2-(((2-((1S,2S)-2-(3-chlorophenyl)cyclopropane-1-carboxamido)pyridin-4-yl)amino)methyl)-6-cyclopropylimidazo[1,2-a]pyridin-8-yl)propanoate] were 1500 to 10000 nM and 1 to 10 nM.
With `CN1CCN(c2cc(C3CC3)cn3cc(CNc4cc(NC(=O)[C@H]5C[C@@H]5c5cccc(Cl)c5)ccn4)nc23)CC1` [Example I-243, (1S,2S)-2-(3-chlorophenyl)-N-(2-(((6-cyclopropyl-8-(4-methylpiperazin-1-yl)imidazo[1,2-a]pyridin-2-yl)methyl)amino)pyridin-4-yl)cyclopropane-1-carboxamide], the IC90 in assay [1] was 400 to 1500 nM. In assay [2], the EC50 was less than 1 nM.
For `Cc1ccnc([C@H]2C[C@@H]2C(=O)Nc2cc(N(C)Cc3cn4cc(C5CC5)cc(N5CC(=O)N(C)C5=O)c4n3)cnn2)n1` [Example I-254, (1S,2S)-N-(5-(((6-cyclopropyl-8-(3-methyl-2,4-dioxoimidazolidin-1-yl)imidazo[1,2-a]pyridin-2-yl)methyl)(methyl)amino)pyridazin-3-yl)-2-(4-methylpyrimidin-2-yl)cyclopropane-1-carboxamide], in that order: less than 400 nM and less than 1 nM.
For `Cc1ccnc([C@H]2C[C@@H]2C(=O)Nc2cc(N(C)Cc3cn4cc(C5CC5)cc(N5CC(=O)N(CCOCc6ccccc6)C5=O)c4n3)cc(C3CC3)n2)n1` [Example I-636, (1S,2S)—N-(4-(((8-(3-(2-(benzyloxy)ethyl)-2,4-dioxoimidazolidin-1-yl)-6-cyclopropylimidazo[1,2-a]pyridin-2-yl)methyl)(methyl)amino)-6-cyclopropylpyridin-2-yl)-2-(4-methylpyrimidin-2-yl)cyclopropane-1-carboxamide], in that order: 1500 to 10000 nM and 1 to 10 nM.
For `Cc1ccnc([C@H]2C[C@@H]2C(=O)Nc2cc(N(C)Cc3cn4cc(C5CC5)cc(N5CC(=O)N(CCO)C5=O)c4n3)cc(C3CC3)n2)n1` [Example I-637, (1S,2S)—N-(6-cyclopropyl-4-(((6-cyclopropyl-8-(3-(2-hydroxyethyl)-2,4-dioxoimidazolidin-1-yl)imidazo[1,2-a]pyridin-2-yl)methyl)(methyl)amino)pyridin-2-yl)-2-(4-methylpyrimidin-2-yl)cyclopropane-1-carboxamide], in that order: less than 400 nM and less than 1 nM.
`Cc1ccnc([C@H]2C[C@@H]2C(=O)Nc2cc(SCc3cn4cc(C5CC5)cc(N5CC(=O)N(C)C5=O)c4n3)nc(C)n2)n1` [Example I-638, (1S,2S)—N-(6-(((6-cyclopropyl-8-(3-methyl-2,4-dioxoimidazolidin-1-yl)imidazo[1,2-a]pyridin-2-yl)methyl)thio)-2-methylpyrimidin-4-yl)-2-(4-methylpyrimidin-2-yl)cyclopropane-1-carboxamide]: in assay [1], the IC90 fell in the range of 400 to 1500 nM. In addition, the EC50 in assay [2] is less than 1 nM.
On to `Cc1cc(NC(=O)[C@H]2C[C@@H]2c2nccc(C)n2)cc(NCc2cn3cc(C4CC4)cc(N4CC(=O)N(C)C4=O)c3n2)n1` [Example I-639, (1S,2S)—N-(2-(((6-cyclopropyl-8-(3-methyl-2,4-dioxoimidazolidin-1-yl)imidazo[1,2-a]pyridin-2-yl)methyl)amino)-6-methylpyridin-4-yl)-2-(4-methylpyrimidin-2-yl)cyclopropane-1-carboxamide], for which, in assay [1], the IC90 is less than 400 nM. Besides, the EC50 in assay [2] was less than 1 nM.

Source of the values: patent publication US20240228488A1 (TAKEDA PHARMACEUTICAL COMPANY LIMITED, priority 2021, published 2024).
